Source: patent US20200308546A1, “ENGINEERED CARDIOMYOCYTES AND USES THREOF” (THE J. DAVID GLADSTONE INSTITUTES, A TESTAMENTARY TRUST …, priority 2016, published 2020)

Legend:
[1] = system: hiPS cell-derived cardiomyocytes; assay: Calcium flux measurements of hiPS cell-derived cardiomyocytes; format: cell-based, human; conditions: isoproterenol followed by carbachol, FIG. 17
Excerpt: A step-wise differentiation protocol was used to generate purified cardiomyocytes from the above-described iPS cell lines (FIG. 12) (Lian et al, 2012; Tohyama et al.,2013). […] The iPS cardiomyocytes spontaneously contracted, expressed high levels of sarcomeric and myofibril markers, and had membrane electrophysiology and gene expressions similar to human cardiomyocytes; 30% were binucleated (FIGS. 15 and 16). […] The protocol thus generated functional human cardiomyocytes suitable for deeper interrogation of cell identity and function.

iWT cardiomyocytes = assay: Traction force microscopy of paced engineered cardiomyocytes (force generation, beat rate), iWT; format: cell-based, human; conditions: wild-type cells, FIGS. 93-95
Excerpt: FIG. 93 is a set of graphs showing force generation of engineered cardiomyocytes treated with a PI3K inhibitor (left) or PI3K activator (right). Relative change in force generation between iWT (black) and G296S (grey) cardiomyocytes after inhibition (circle) or activation (triangle) of P13K signaling. Traction force microscopy (TFM) measurements of CMs responding accurately to 1 Hz pacing. Data are mean±sem, *,p<0.05, **,p<0.005, ***p<0.0005 (Mann-Whitney test).
FIG. 94 is a schematic illustrating the postulated protein-protein interaction in wild-type (top) and G296S mutant (bottom) cardiomyocytes. Beat rate measurements between iWT (black) and G296S (grey) cardiomyocytes after inhibition (circle) or activation (triangle) of P13K signaling. TFM measurements of cardiomyocytes responding accurately to 1 Hz pacing. Data are mean±sem, *,p<0.05, ** p<0.005, ***p⋅<0.0005 (Mann-Whitney test).
A “scale-free” network (Barabasl and Albert, ⋅1999) of 716 nodes connected by 2,353 edges with an average 6.6 neighbors and path length of 4.3 (FIG. 90). Nodes were connected by edges representing physical (protein-protein) or functional (genetic, co-expression, co-occurrence) interactions. At least 5 sub-networks connected through 20 regulatory “hubs” were identified. […]

SMILES	calcium flux response [1]	beat rates (iWT cardiomyocytes)
C[N+](C)(C)CCOC(N)=O [carbachol]	expected response	
CC(C)NCC(O)c1ccc(O)c(O)c1 (stereo not drawn) [isoproterenol]	expected response	
O=c1cc(N2CCOCC2)oc2c(-c3ccccc3)cccc12 [LY294002]		no effect
